Laboratory results published in publication PMC12022903, “Evaluation of drug-drug interaction between Suraxavir Marboxil (GP681) and itraconazole, and assessment of the impact of gene polymorphism” (Frontiers in Pharmacology, 2025).
Where two headings read alike, the source gives them in different places.

Key:
[1] = format: in vivo
Method: This single-center, open-label, self-controlled, fixed-sequence study, sponsored by Qingfeng Pharmaceutical Group Co., Ltd., was conducted at a single clinical research site in the China–Japan Friendship Hospital (Beijing, China). Each subject received the following treatment: Suraxavir Marboxil (GP681) 20 mg in the fasted state on day 1 and day 26. Itraconazole capsules (Sporanox®: Xi’an Yangsen Pharmaceutical Co., Ltd., China) 0.2 g twice daily (BID, bis in die) on day 22. Itraconazole 0.2 g daily from day 23 to day 36 [including day 26, when itraconazole was co-administrated with Suraxavir Marboxil (GP681)]. The washout period is 21 days (Figure 2).
Safety was assessed through physical examination, vital sign measurements, clinical laboratory tests, 12-lead electrocardiograms, and assessment of self-reported symptoms. Adverse events were collected from the first dose through the end of the study. All safety data collected were assessed for severity and relationship to each study drug, Suraxavir Marboxil (GP681) or itraconazole. The severity of an adverse event was graded according to Common Terminology Criteria for Adverse Events (CTCAE) v5.0. For each adverse event occurred, investigators continued to follow up until it was resolved. Adverse event analysis is based on Safety Set (SS), coded with MedDRA version 26.0. Adverse events will be summarized by system organ class (SOC) and preferred term (PT) in terms of number of cases, occurrences, and incidence rate.

[2] = quantification limit 0.3 ng/mL
[3] = design: method as in unpublished data; conditions: preclinical studies; ref unpublished data; cited from earlier work
[4] = system: BCRP; design: method as in unpublished data; conditions: preclinical studies; ref unpublished data; cited from earlier work
[5] = system: MDR1; design: method as in unpublished data; conditions: preclinical studies; ref unpublished data; cited from earlier work
[6] = system: liver enzymes; design: method as in unpublished data; conditions: preclinical studies; ref unpublished data; cited from earlier work
[7] = system: MDR1; design: method as in unpublished data; conditions: preclinical studies; ref unpublished data; cited from earlier work; remark: listed apart in the source
[8] = system: OATP1B1; design: method as in unpublished data; conditions: preclinical studies; ref unpublished data; cited from earlier work
[9] = system: OATP1B3; design: method as in unpublished data; conditions: preclinical studies; ref unpublished data; cited from earlier work
[10] = system: OAT1; design: method as in unpublished data; conditions: preclinical studies; ref unpublished data; cited from earlier work
[11] = system: OAT3; design: method as in unpublished data; conditions: preclinical studies; ref unpublished data; cited from earlier work
[12] = design: method as in unpublished data; conditions: within 336 h after oral administration; ref unpublished data; cited from earlier work
[13] = system: carboxylesterase CES2; design: method as in unpublished data; conditions: preclinical studies; ref unpublished data; cited from earlier work
[14] = N = 12, treatment stage given by label

## COC(=O)OCOc1c2n(ccc1=O)N([C@@H]1c3ccccc3SCc3c1ccc(F)c3F)[C@@H]1COC3(CC3)CN1C2=O [GP681, (((R)-12'-((S)-7,8-difluoro-6, 11-dihydro-2-benzothiophene-11-yl)-6′, 8′-dioxide-6′, 8′, 12′, 12a′-tetrahydro-1′H-, 4′H-spiro [cyclopropane-1, 3'-[1, 4]oxazine [3,4-c]pyridine and [2,1-f] [1,2, 4]triazine]-7′-yl)oxy) methyl carbonate]
[1]; [14]
  TEAE Alanine aminotransferase increased: no. of TEAEs: 1
  TEAE Alanine aminotransferase increased: no. of subjects (percent of subjects): 1 (8.3)
  TEAE Basophil count increased: no. of subjects (percent of subjects): 0
  TEAE Gamma-glutamyltransferase increased: no. of TEAEs: 1
  TEAE Gamma-glutamyltransferase increased: no. of subjects (percent of subjects): 1 (8.3)
  TEAE Hemoglobin decreased: no. of TEAEs: 1
  TEAE Hemoglobin decreased: no. of subjects (percent of subjects): 1 (8.3)
  TEAE Hepatobiliary disorders: no. of subjects (percent of subjects): 0
  TEAE Hyperbilirubinemia: no. of subjects (percent of subjects): 0
  TEAE Hypertriglyceridemia: no. of TEAEs: 1
  TEAE Hypertriglyceridemia: no. of subjects (percent of subjects): 1 (8.3)
  TEAE Hyperuricemia: no. of TEAEs: 1
  TEAE Hyperuricemia: no. of subjects (percent of subjects): 1 (8.3)
  TEAE Hypophosphatemia: no. of subjects (percent of subjects): 0
  TEAE Investigations: no. of TEAEs: 7
  TEAE Investigations: no. of subjects (percent of subjects): 4 (33.3)
  TEAE Lymphocyte count decreased: no. of TEAEs: 1
  TEAE Lymphocyte count decreased: no. of subjects (percent of subjects): 1 (8.3)
  TEAE Metabolism and nutrition disorders: no. of TEAEs: 2
  TEAE Metabolism and nutrition disorders: no. of subjects (percent of subjects): 2 (16.7)
  TEAE Occult blood in urine: no. of TEAEs: 1
  TEAE Occult blood in urine: no. of subjects (percent of subjects): 1 (8.3)
  TEAE Overall total: no. of TEAEs: 9
  TEAE Overall total: no. of subjects (percent of subjects): 5 (41.7)
  TEAE Red blood cell increased: no. of TEAEs: 1
  TEAE Red blood cell increased: no. of subjects (percent of subjects): 1 (8.3)
  TEAE Total bile acid increased: no. of TEAEs: 1
  TEAE Total bile acid increased: no. of subjects (percent of subjects): 1 (8.3)
  TEAE White blood cell increased: no. of subjects (percent of subjects): 0
  TEAE related to GP681, Alanine aminotransferase increased: no. of TEAEs: 1[1]
  TEAE related to GP681, Alanine aminotransferase increased: no. of subjects: 1[1]
  TEAE related to GP681, Gamma-glutamyltransferase increased: no. of TEAEs: 1[1]
  TEAE related to GP681, Gamma-glutamyltransferase increased: no. of subjects: 1[1]
  TEAE related to GP681, Hemoglobin decreased: no. of TEAEs: 1[1]
  TEAE related to GP681, Hemoglobin decreased: no. of subjects: 1[1]
  TEAE related to GP681, Hypertriglyceridemia: no. of TEAEs: 1[1]
  TEAE related to GP681, Hypertriglyceridemia: no. of subjects: 1[1]
  TEAE related to GP681, Hypophosphatemia: no. of TEAEs: 1[1]
  TEAE related to GP681, Hypophosphatemia: no. of subjects: 1[1]
  TEAE related to GP681, Investigations: no. of TEAEs: 7
  TEAE related to GP681, Investigations: no. of subjects: 3
  TEAE related to GP681, Lymphocyte count decreased: no. of TEAEs: 1[1]
  TEAE related to GP681, Lymphocyte count decreased: no. of subjects: 1[1]
  TEAE related to GP681, Metabolism and nutrition disorders: no. of TEAEs: 2[2]
  TEAE related to GP681, Metabolism and nutrition disorders: no. of subjects: 2[2]
  TEAE related to GP681, Occult blood in urine: no. of TEAEs: 1[1]
  TEAE related to GP681, Occult blood in urine: no. of subjects: 1[1]
  TEAE related to GP681, Overall total: no. of TEAEs: 9
  TEAE related to GP681, Overall total: no. of subjects: 4
  TEAE related to GP681, Red blood cell increased: no. of TEAEs: 1[1]
  TEAE related to GP681, Red blood cell increased: no. of subjects: 1[1]
  TEAE related to GP681, Total bile acid increased: no. of TEAEs: 1[1]
  TEAE related to GP681, Total bile acid increased: no. of subjects: 1[1]
[1]; N = 12, treatment stage given by label, listed as Suraxavir Marboxil (GP681)
  TEAE Overall total: no. of subjects (percent of subjects): 5
[1]; Total over the study, N = 12
  TEAE related to GP681, Overall total: no. of TEAEs: 11
  TEAE related to GP681, Overall total: no. of subjects: 5
[1]; whole study, 12 subjects
  serious adverse events: No serious adverse events
[2]
  plasma concentrations of GP681 in all the rest of blood samples: below the quantification limit
[3]
  detection of prodrug in plasma following oral administration: scarcely detected in plasma
  route of excretion: mainly excreted in feces
[4]
  substrate for the BCRP transporter: Neither Suraxavir Marboxil (GP681) nor its metabolite, GP1707D07, serves as substrates
[5]
  substrate for the MDR1 transporter: Neither Suraxavir Marboxil (GP681) nor its metabolite, GP1707D07, serves as substrates
[6]
  inhibition or induction of liver enzymes: do not significantly inhibit or induce liver enzymes
[7]
  inhibition of transport activity of MDR1: nor do they inhibit the transport activity
[8]
  inhibition of transport activity of OATP1B1: nor do they inhibit the transport activity
[9]
  inhibition of transport activity of OATP1B3: nor do they inhibit the transport activity
[10]
  inhibition of transport activity of OAT1: nor do they inhibit the transport activity
[11]
  inhibition of transport activity of OAT3: nor do they inhibit the transport activity
[12]
  radioactivity recovery in feces: 84.1%
  radioactivity recovery in urine: 6.0%
  total radioactivity recovery rate: 90.1%
[13]
  conversion of prodrug to active form: converted to an active form GP1707D07 by carboxylesterase CES2

## CCC(C)n1ncn(-c2ccc(N3CCN(c4ccc(OCC5COC(Cn6cncn6)(c6ccc(Cl)cc6Cl)O5)cc4)CC3)cc2)c1=O (stereo not shown) [Itraconazole]
[1]; [14]
  TEAE Alanine aminotransferase increased: no. of TEAEs: 1
  TEAE Alanine aminotransferase increased: no. of subjects (percent of subjects): 1 (8.3)
  TEAE Basophil count increased: no. of subjects (percent of subjects): 0
  TEAE Gamma-glutamyltransferase increased: no. of subjects (percent of subjects): 0
  TEAE Hemoglobin decreased: no. of subjects (percent of subjects): 0
  TEAE Hepatobiliary disorders: no. of subjects (percent of subjects): 1 (8.3)
  TEAE Hyperbilirubinemia: no. of subjects (percent of subjects): 1 (8.3)
  TEAE Hypertriglyceridemia: no. of subjects (percent of subjects): 1 (8.3)
  TEAE Hyperuricemia: no. of subjects (percent of subjects): 0
  TEAE Hypophosphatemia: no. of subjects (percent of subjects): 0
  TEAE Investigations: no. of TEAEs: 2
  TEAE Investigations: no. of subjects (percent of subjects): 2 (16.7)
  TEAE Lymphocyte count decreased: no. of subjects (percent of subjects): 0
  TEAE Metabolism and nutrition disorders: no. of subjects (percent of subjects): 1 (8.3)
  TEAE Occult blood in urine: no. of TEAEs: 1
  TEAE Occult blood in urine: no. of subjects (percent of subjects): 1 (8.3)
  TEAE Overall total: no. of TEAEs: 4
  TEAE Overall total: no. of subjects (percent of subjects): 4 (33.3)
  TEAE Red blood cell increased: no. of subjects (percent of subjects): 0
  TEAE Total bile acid increased: no. of subjects (percent of subjects): 0
  TEAE White blood cell increased: no. of subjects (percent of subjects): 0
[1]; N = 12, treatment stage given by label, listed as itraconazole
  TEAE Overall total: no. of subjects (percent of subjects): 4
